Experimental data from publication PMC11653107, “Development of a UPLC-MS/MS method for the determination of sulfatinib and its no interaction with myricetin in rats” (Frontiers in Pharmacology, 2024).
Read-outs that look alike come from different tables or passages of the source. Blank lines part the entries; values can stand above or below the compound they belong to.

Key:
[1] = Pharmacokinetics of sulfatinib in rats, DDI study with myricetin (UPLC-MS/MS of plasma); assay type: in vivo, Sprague-Dawley (SD) rats
Description: In the present assay, a Waters Xevo TQS triple quadrupole tandem mass spectrometer (Milford, MA, United States), connected to a Waters Acquity UPLC I class system (Milford, MA, United States) was applied in the method. The parameters of mass spectrometry were determined as follows before analysis: capillary voltage 2.0 kV, desolvation gas 1000 L/h, collision gas 0.15 mL/min, desolvation temperature 600°C and conical gas 150 L/h. Seperations of sulfatinib and IS were done on an Acquity UPLC BEH C18 (2.1 mm × 50 mm, 1.7 µm) set at 40°C. The autosampler used to analyze all samples was held at 10°C. The measurements were conducted using a multiple reaction monitoring (MRM) scanning mode with an electrospray ionization (ESI) source in positive ion mode. At a flow rate of 0.40 mL/min, the mobile phase was consisted of acetonitrile (A) and 0.1% formic acid aqueous solution (B), with a linear gradient scheme as follows: 0–0.5 min, A/B = 10/90%; 0.5–1.0 min, A/B = 90/10%; 1.0–1.4 min, A/B = 90/10%; 1.4–1.5 min, A/B = 10/90%; 1.5–2.0 min, A/B = 10/90%. The parameters optimized for mass spectrometry of sulfatinib and IS included cone voltages of 20 V and 30 V, and collision energies of 25 eV and 28 eV, respectively. The parent and daughter ions of sulfatinib and IS were m/z 480.98 → 329.02 and m/z 426.87 → 369.84, respectively (as indicated in Table 1).
The protein was precipitated by mixing 300 µL of acetonitrile and 10 µL of IS working solution into 100 µL of plasma. After a full vortex for 2.0 min, the mixture was centrifuged at 4°C for 10 min (13,000 rpm). Afterwards, the supernatant of 100 µL was moved into a vial, with a 2 µL injected and analyzed by UPLC-MS/MS.
Ten male Sprague-Dawley (SD) rats for this experiment, weighting 200 ± 10 g, were purchased from the Experimental Animal Center of The First Affiliated Hospital of Wenzhou Medical University (Zhejiang, China). Prior to the start of the investigation, all rats were domesticated under laboratory conditions for 1 week to minimize their suffering. The animals were kept in an appropriate environment (temperature, humidity, light conditions, freely available food and water). The experimental process of the animals was strictly adhered to the regulations for the care and use of laboratory animals as reviewed and approved by the Ethics Committee of The First Affiliated Hospital of Wenzhou Medical University (Wenzhou, China). The preparation of sulfatinib for gavage was carried out using 0.5% carboxymethylcellulose sodium (CMC-Na) solution. Half an hour after the administration of either myricetin or the same dose of 0.5% CMC-Na solution, 10 rats were simultaneously administered orally with sulfatinib (30 mg/kg). At 0.25, 0.5, 0.75, 1, 1.5, 2, 3, 4, 6, 8, 12, 24, 48 h, approximately 0.3 mL of blood was obtained from the tail vein of SD rats and transferred into heparinized polyethylene tubes. A 100 µL of plasma was obtained by centrifuging the blood at 13,000 rpm for 8 min and stored at −80°C for sample treatment.
Origin 9.0 (Originlab Inc., Northampton, MA, United States) was used in this experiment to plot the mean concentration of sulfatinib versus time in plasma. DAS software (Drug and Statistics, Version 3.0, China) was applied to fit the non-compartmental model of sulfatinib, and the main pharmacokinetic parameters of sulfatinib were obtained. Pharmacokinetics were compared for each group using SPSS software (version 24.0, Chicago, United States, SPSS Inc.) using the independent samples t-test. At p < 0.05, the difference was significant.

CYP3A4 = tested on: CYP3A4; parameters: method as in Li et al., 2018; conditions: studies in rats; ref Li et al., 2018; cited from earlier work
CYP2C9 = tested on: CYP2C9; parameters: method as in Li et al., 2018; conditions: studies in rats; ref Li et al., 2018; cited from earlier work
[2] = tested on: cytochrome P450 3A4 (CYP3A4); parameters: method as in Li et al., 2020b; conditions: in vitro; ref Li et al., 2020b; cited from earlier work
[3] = Stability of sulfatinib in rat plasma QCs under storage and processing conditions; conditions: analyzer 10°C for 4 h, −80°C for 3 weeks, room temperature for 3 h, three freeze-thaw cycles; QCs 2, 800, 1,600 ng/mL
Description: The stability was investigated by repeating the assay five times under different storage conditions for three rat plasma QCs (2, 800 and 1,600 ng/mL). The conditions included stability in the analyzer (4 h, 10°C), long-term storage ([…], 3 weeks), short-term storage (3 h, room temperature) and freeze-thaw cycles (three complete times).

[4] = parameters: method as in Li et al., 2020a; conditions: healthy subjects, single oral intake of 300 mg; ref Li et al., 2020a; cited from earlier work
[5] = cited from earlier work
[6] = male, Sprague-Dawley, rat, in vivo, po, 30 mg/kg

Compound: O=c1c(O)c(-c2cc(O)c(O)c(O)c2)oc2cc(O)cc(O)c12 [myricetin, Myricetin]
effect of myricetin on AUC0→∞ and Cmax of sulfatinib ([1]; rats, 50 mg/kg myricetin orally half an hour before 30 mg/kg sulfatinib, P > 0.05): no significant effect | inhibition of CYP3A4 (CYP3A4): inhibited | inhibition of CYP2C9 (CYP2C9): inhibited

AUC0→t [1, 6]: 9,168.6 ± 2,531.4 ng/mL·h | AUC0→∞ [1, 6]: 9,171.6 ± 2,532.4 ng/mL·h | CLz/F [1, 6]: 58.3 ± 18.3 mL/min/kg | Tmax [1, 6]: 4.4 ± 0.9 h | AUC(0-t) ([1]; male, Sprague-Dawley, rat, in vivo, po, 30 mg/kg, AUC0→t): 9250 ng·h/mL | AUC(0-inf) ([1]; male, Sprague-Dawley, rat, in vivo, po, 30 mg/kg, AUC0→∞): 9260 ng·h/mL | CL/F ([1]; male, Sprague-Dawley, rat, in vivo, po, 30 mg/kg, CLz/F): 55 mL/min/kg | Cmax ([1]; male, Sprague-Dawley, rat, in vivo, po, 30 mg/kg, Cmax): 1040 ng/mL | Tmax ([1]; male, Sprague-Dawley, rat, in vivo, po, 30 mg/kg, Tmax): 3.4 ± 1.7 h | half-life ([1]; male, Sprague-Dawley, rat, in vivo, po, 30 mg/kg, t1/2): 3.64 h | AUC ([1]; rat, in vivo, po, 30 mg/kg): 8970 ng·h/mL | time to Cmax ([1]; rat, in vivo, po, 30 mg/kg): approximately 3.8 h | stability in rat plasma [3]: satisfied
Compound: Cc1cc2cc(Oc3ccnc(Nc4cccc(CS(=O)(=O)NCCN(C)C)c4)n3)ccc2[nH]1 [Sulfatinib]
enzyme mediating the metabolism [2]: major enzyme mediating the metabolism | AUC [4]: 2670 ng·h/mL | Cmax [4]: 205 ng/mL | t1/2 [4]: 17.1 h | time to Cmax [4]: approximately 2 h | serum level of the original drug ([5]; after oral administration, ref Li et al., 2020b): about 40.3% | fecal excretion ([5]; excretion route mainly fecal, ref Lu et al., 2024, Xu et al., 2017, Li et al., 2020a): 88%
